Experimental findings from patent US11834453B2, “Substituted pyrimido[5,4-d]pyrimidines as HER2 inhibitors” (Array BioPharma Inc., priority 2020, dated 2023) are described below.

SMILES strings stand for the structures.

The IC50 is the point on the concentration scale where inhibition reaches its midpoint.

Chain of EGFR wild type (EGFR WT) (P00533 25-1210): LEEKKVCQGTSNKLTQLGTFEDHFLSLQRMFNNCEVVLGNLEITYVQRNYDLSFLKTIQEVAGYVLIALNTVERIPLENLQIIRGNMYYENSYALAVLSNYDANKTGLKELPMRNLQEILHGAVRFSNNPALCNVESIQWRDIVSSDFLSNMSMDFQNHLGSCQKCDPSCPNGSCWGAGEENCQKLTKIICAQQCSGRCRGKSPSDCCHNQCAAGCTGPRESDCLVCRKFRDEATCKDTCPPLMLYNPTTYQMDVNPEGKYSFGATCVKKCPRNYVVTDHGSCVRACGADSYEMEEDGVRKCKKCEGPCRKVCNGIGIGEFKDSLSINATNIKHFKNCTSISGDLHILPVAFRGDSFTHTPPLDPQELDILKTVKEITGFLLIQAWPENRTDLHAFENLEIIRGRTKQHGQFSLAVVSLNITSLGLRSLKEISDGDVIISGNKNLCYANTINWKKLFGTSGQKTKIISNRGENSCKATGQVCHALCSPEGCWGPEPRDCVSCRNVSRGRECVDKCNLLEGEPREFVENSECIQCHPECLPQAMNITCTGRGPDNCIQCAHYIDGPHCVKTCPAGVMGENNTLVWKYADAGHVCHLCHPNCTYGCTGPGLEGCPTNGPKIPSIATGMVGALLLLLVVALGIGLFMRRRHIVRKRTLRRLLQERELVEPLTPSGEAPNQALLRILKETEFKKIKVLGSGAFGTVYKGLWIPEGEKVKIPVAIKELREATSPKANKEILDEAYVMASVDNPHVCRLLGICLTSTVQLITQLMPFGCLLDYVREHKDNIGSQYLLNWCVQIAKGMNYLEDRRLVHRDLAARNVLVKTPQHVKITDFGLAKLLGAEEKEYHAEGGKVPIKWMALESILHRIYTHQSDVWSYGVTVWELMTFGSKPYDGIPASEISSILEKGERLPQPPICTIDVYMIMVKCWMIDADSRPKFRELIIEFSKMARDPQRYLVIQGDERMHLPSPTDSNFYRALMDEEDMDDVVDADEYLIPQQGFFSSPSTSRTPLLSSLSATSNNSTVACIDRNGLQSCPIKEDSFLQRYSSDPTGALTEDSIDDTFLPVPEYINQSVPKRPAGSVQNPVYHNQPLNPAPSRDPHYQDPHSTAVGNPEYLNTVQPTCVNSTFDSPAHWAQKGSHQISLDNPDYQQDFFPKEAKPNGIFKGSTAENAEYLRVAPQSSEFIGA
Chain of ErbB2 with Exon 20 YVMA insertion (HER2-YVMA) (P04626 other isoform, or with tags, fused parts or gaps ins YVMA behind 775): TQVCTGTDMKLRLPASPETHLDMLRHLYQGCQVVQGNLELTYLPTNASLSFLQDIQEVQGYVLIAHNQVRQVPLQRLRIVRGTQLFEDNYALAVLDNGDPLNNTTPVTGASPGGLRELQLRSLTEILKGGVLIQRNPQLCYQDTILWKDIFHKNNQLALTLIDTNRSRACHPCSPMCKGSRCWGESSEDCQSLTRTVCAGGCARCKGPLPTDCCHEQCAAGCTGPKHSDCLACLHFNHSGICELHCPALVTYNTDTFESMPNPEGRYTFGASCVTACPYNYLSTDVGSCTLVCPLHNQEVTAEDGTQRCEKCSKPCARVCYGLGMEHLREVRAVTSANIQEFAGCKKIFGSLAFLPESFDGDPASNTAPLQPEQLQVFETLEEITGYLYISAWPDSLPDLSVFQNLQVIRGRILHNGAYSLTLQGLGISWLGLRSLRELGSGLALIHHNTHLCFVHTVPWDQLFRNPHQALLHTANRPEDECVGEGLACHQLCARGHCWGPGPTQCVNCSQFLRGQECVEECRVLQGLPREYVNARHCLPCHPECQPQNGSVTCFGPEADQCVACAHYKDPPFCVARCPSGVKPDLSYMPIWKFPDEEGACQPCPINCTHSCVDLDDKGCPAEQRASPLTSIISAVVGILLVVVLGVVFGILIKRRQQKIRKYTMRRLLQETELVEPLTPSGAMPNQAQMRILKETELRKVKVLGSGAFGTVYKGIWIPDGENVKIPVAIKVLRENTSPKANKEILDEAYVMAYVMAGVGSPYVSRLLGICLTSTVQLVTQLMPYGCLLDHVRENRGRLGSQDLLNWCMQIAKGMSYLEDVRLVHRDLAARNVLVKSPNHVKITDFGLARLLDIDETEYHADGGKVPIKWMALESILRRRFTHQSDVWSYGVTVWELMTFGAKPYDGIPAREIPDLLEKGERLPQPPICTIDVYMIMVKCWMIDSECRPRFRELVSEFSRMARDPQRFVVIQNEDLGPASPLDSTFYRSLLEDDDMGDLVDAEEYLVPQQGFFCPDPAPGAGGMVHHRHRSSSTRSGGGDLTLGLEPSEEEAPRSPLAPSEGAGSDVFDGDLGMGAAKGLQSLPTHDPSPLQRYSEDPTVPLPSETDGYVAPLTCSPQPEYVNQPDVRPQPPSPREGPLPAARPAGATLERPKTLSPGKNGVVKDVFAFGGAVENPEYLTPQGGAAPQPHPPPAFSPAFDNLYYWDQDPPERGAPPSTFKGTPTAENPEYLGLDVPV

The first assay addresses ErbB2 with Exon 20 YVMA insertion (HER2-YVMA) (Homo sapiens (Human), UniProt P04626, INS775YVMA). Description: Cellular phosphorylation assay, constitutive ErbB2 phosphorylation (Y1196) in engineered NIH 3T3 cells, Assay 4. In kind it is cell-based.
Details: not given
A digest of the protocol: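 Engineered NIH 3T3 cells expressing HER2-YVMA treated with compounds 1 h at 37 °C, then formaldehyde-fixed and methanol-permeabilized. pErbB2 Y1196 detected by in-cell infrared immunofluorescence, normalized to GAPDH. IC50 from the normalized curves.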
The molecule `Clc1cc(Nc2ncnc3cnc(N4C5CCC4COC5)nc23)ccc1Oc1ccn2ncnc2c1` [Example 322] had an IC50 of 102 nM.
`O[C@@H]1CN(c2ncc3ncnc(Nc4ccc(Oc5ccn6ncnc6c5)c(Cl)c4)c3n2)CC1(F)F` [Example 323]: half-maximal inhibition (IC50) was put at 59.9 nM.
The molecule `CC1(O)CN(c2ncc3ncnc(Nc4ccc(Oc5ccn6ncnc6c5)c(Cl)c4)c3n2)C1` [Example 324] returned an IC50 of 124 nM.
Molecule `COC[C@H](O)CN(C)c1ncc2ncnc(Nc3ccc(Oc4ccn5ncnc5c4)c(Cl)c3)c2n1` [Example 325] had an IC50 of 166 nM.
Regarding `OC1(CNc2ncc3ncnc(Nc4ccc(Oc5ccn6ncnc6c5)c(Cl)c4)c3n2)COC1` [Example 326], the IC50 turned out to be 32.1 nM.
Same read-out and setting: to `C[C@H]1CN(c2ncc3ncnc(Nc4ccc(Oc5ccn6ncnc6c5)c(Cl)c4)c3n2)CCO1` [Example 327] belongs 105 nM; to `COC[C@@H]1CCN1c1ncc2ncnc(Nc3ccc(Oc4ccn5ncnc5c4)c(Cl)c3)c2n1` [Example 328], 306 nM.
In the case of `CN(CC1(O)CCC1)c1ncc2ncnc(Nc3ccc(Oc4ccn5ncnc5c4)c(Cl)c3)c2n1` [Example 329], the IC50 came to 85.2 nM.
Consider `CC1(C)CN(c2ncc3ncnc(Nc4ccc(Oc5ccn6ncnc6c5)c(Cl)c4)c3n2)CCO1` [Example 330], for which it took 197 nM to reach half-maximal inhibition (IC50).
Take `O[C@@H]1C[C@H]2C[C@@H]1CN2c1ncc2ncnc(Nc3ccc(Oc4ccn5ncnc5c4)c(Cl)c3)c2n1` [Example 332]: the IC50 is 186 nM.
Regarding `O[C@@H]1C[C@@H]2C[C@H]1CN2c1ncc2ncnc(Nc3ccc(Oc4ccn5ncnc5c4)c(Cl)c3)c2n1` [Example 333], half-maximal inhibition (IC50) was put at 82.1 nM.
On to `O[C@H]1C[C@@H]2C[C@H]1CN2c1ncc2ncnc(Nc3ccc(Oc4ccn5ncnc5c4)c(Cl)c3)c2n1` [Example 334], for which the IC50 came to 266 nM.

The target of the next assay is EGFR (Homo sapiens (Human), UniProt P00533). The assay can be described thus: ErbB enzyme assay (CisBio HTRF KinEASE-TK), Assay 3. It counts as biochemical.
Chain of EGFR (P00533 25-1210): as the sequence (P00533 25-1210) above
Details: not given
Summed up:
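Kinase + 250 nM biotin TK-substrate, 1 mM ATP, cpd (3-fold dil.), HEPES pH 7.4/10 mM MgCl2/0.01% Triton/2% DMSO; 30 min 22 °C. Quench w/ Sa-XL665 + TK-Ab-Cryptate, 1 h, HTRF. IC50 = 50 POC on 4PL fit.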
On the technique in general: Time-resolved FRET reads energy transfer from a long-lived donor to a nearby acceptor.
As for `Clc1cc(Nc2ncnc3cnc(N4C5CCC4COC5)nc23)ccc1Oc1ccn2ncnc2c1` [Example 322], the IC50 was at least 10000 nM.
The molecule `O[C@@H]1CN(c2ncc3ncnc(Nc4ccc(Oc5ccn6ncnc6c5)c(Cl)c4)c3n2)CC1(F)F` [Example 323] showed an IC50 of 9720 nM.
Molecule `CC1(O)CN(c2ncc3ncnc(Nc4ccc(Oc5ccn6ncnc6c5)c(Cl)c4)c3n2)C1` [Example 324] came in with a concentration for half-maximal inhibition (IC50) of at least 10000 nM.
Turning to `COC[C@H](O)CN(C)c1ncc2ncnc(Nc3ccc(Oc4ccn5ncnc5c4)c(Cl)c3)c2n1` [Example 325], half-maximal inhibition (IC50) was put at 4880 nM.
Same read-out and setting: the value for `OC1(CNc2ncc3ncnc(Nc4ccc(Oc5ccn6ncnc6c5)c(Cl)c4)c3n2)COC1` [Example 326] was 2340 nM; that for `C[C@H]1CN(c2ncc3ncnc(Nc4ccc(Oc5ccn6ncnc6c5)c(Cl)c4)c3n2)CCO1` [Example 327] was 3820 nM.
Molecule `COC[C@@H]1CCN1c1ncc2ncnc(Nc3ccc(Oc4ccn5ncnc5c4)c(Cl)c3)c2n1` [Example 328] had an IC50 of at least 10000 nM.
`CN(CC1(O)CCC1)c1ncc2ncnc(Nc3ccc(Oc4ccn5ncnc5c4)c(Cl)c3)c2n1` [Example 329] returned an IC50 of 5060 nM.
With `CC1(C)CN(c2ncc3ncnc(Nc4ccc(Oc5ccn6ncnc6c5)c(Cl)c4)c3n2)CCO1` [Example 330], half-maximal inhibition (IC50) was put at 8510 nM.
In the case of `O[C@@H]1C[C@H]2C[C@@H]1CN2c1ncc2ncnc(Nc3ccc(Oc4ccn5ncnc5c4)c(Cl)c3)c2n1` [Example 332], the concentration for half-maximal inhibition (IC50) was at least 10000 nM.
For the molecule `O[C@@H]1C[C@@H]2C[C@H]1CN2c1ncc2ncnc(Nc3ccc(Oc4ccn5ncnc5c4)c(Cl)c3)c2n1` [Example 333], half-maximal inhibition (IC50) was put at 2230 nM.
`O[C@H]1C[C@@H]2C[C@H]1CN2c1ncc2ncnc(Nc3ccc(Oc4ccn5ncnc5c4)c(Cl)c3)c2n1` [Example 334] came in with an IC50 of 1650 nM.

In a further assay the target is ErbB2 WT (Homo sapiens (Human), UniProt P04626). Description: ErbB enzyme assay (CisBio HTRF KinEASE-TK), Assay 2. In kind it is biochemical.
Chain of ErbB2 WT (P04626 23-1255): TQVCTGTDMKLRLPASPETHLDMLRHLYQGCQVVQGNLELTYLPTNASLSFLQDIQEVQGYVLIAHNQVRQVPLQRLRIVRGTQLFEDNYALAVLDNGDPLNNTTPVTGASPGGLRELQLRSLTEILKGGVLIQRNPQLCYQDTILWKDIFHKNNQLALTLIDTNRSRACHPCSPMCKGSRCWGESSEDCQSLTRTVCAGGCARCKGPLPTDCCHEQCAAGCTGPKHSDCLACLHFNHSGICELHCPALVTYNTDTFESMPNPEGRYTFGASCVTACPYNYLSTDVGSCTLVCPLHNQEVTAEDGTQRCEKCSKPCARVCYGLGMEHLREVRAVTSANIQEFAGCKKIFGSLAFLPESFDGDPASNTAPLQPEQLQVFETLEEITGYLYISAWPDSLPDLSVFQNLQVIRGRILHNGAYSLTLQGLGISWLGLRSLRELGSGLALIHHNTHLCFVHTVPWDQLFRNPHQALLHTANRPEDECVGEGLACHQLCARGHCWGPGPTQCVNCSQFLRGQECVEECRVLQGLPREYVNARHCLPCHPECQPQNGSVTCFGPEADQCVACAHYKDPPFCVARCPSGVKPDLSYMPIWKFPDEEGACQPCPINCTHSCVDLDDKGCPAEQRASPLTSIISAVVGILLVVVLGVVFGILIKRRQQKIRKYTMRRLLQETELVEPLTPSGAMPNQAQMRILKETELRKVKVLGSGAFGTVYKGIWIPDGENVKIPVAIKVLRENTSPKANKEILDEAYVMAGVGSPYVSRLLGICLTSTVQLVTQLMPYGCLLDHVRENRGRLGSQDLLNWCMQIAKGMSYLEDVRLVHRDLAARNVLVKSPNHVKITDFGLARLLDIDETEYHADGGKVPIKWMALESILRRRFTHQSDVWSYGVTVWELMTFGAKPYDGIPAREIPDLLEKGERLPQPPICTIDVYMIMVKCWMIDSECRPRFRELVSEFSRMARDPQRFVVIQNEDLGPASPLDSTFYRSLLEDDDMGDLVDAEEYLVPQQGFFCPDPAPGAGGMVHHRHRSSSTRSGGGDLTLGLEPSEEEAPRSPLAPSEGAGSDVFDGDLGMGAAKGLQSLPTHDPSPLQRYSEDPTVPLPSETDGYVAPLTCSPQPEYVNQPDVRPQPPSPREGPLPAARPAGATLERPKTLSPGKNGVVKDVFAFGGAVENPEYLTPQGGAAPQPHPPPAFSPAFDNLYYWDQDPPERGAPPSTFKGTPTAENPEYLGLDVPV
Details: not given
A digest of the protocol: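 ErbB2 phosphorylates 250 nM biotin-TK substrate at 1 mM ATP in 25 mM HEPES pH 7.4, 10 mM MgCl2, 0.01% Triton X-100 and 2% DMSO, for 30 min at 22 °C. Product is detected by HTRF with Sa-XL665 and TK-Ab-Cryptate. Percent of control is set by DMSO-only wells and pre-quenched wells.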
On to `Clc1cc(Nc2ncnc3cnc(N4C5CCC4COC5)nc23)ccc1Oc1ccn2ncnc2c1` [Example 322], for which the concentration for half-maximal inhibition (IC50) amounted to 62.1 nM.
In turn, `O[C@@H]1CN(c2ncc3ncnc(Nc4ccc(Oc5ccn6ncnc6c5)c(Cl)c4)c3n2)CC1(F)F` [Example 323] showed an IC50 of 75.4 nM.
Take `CC1(O)CN(c2ncc3ncnc(Nc4ccc(Oc5ccn6ncnc6c5)c(Cl)c4)c3n2)C1` [Example 324]: the IC50 was determined as 119 nM.
Same read-out and setting: the value for `COC[C@H](O)CN(C)c1ncc2ncnc(Nc3ccc(Oc4ccn5ncnc5c4)c(Cl)c3)c2n1` [Example 325] was 45.3 nM; that for `OC1(CNc2ncc3ncnc(Nc4ccc(Oc5ccn6ncnc6c5)c(Cl)c4)c3n2)COC1` [Example 326] was 32.6 nM; that for `C[C@H]1CN(c2ncc3ncnc(Nc4ccc(Oc5ccn6ncnc6c5)c(Cl)c4)c3n2)CCO1` [Example 327] was 32.1 nM.
The molecule `COC[C@@H]1CCN1c1ncc2ncnc(Nc3ccc(Oc4ccn5ncnc5c4)c(Cl)c3)c2n1` [Example 328] yielded an IC50 of 105 nM.
`CN(CC1(O)CCC1)c1ncc2ncnc(Nc3ccc(Oc4ccn5ncnc5c4)c(Cl)c3)c2n1` [Example 329] displayed an IC50 of 37.7 nM.
The molecule `CC1(C)CN(c2ncc3ncnc(Nc4ccc(Oc5ccn6ncnc6c5)c(Cl)c4)c3n2)CCO1` [Example 330] came in with an IC50 of 72.6 nM.
For `O[C@@H]1C[C@H]2C[C@@H]1CN2c1ncc2ncnc(Nc3ccc(Oc4ccn5ncnc5c4)c(Cl)c3)c2n1` [Example 332], it took 50.5 nM to reach half-maximal inhibition (IC50).
Molecule `O[C@@H]1C[C@@H]2C[C@H]1CN2c1ncc2ncnc(Nc3ccc(Oc4ccn5ncnc5c4)c(Cl)c3)c2n1` [Example 333] yielded an IC50 of 23.2 nM.
Molecule `O[C@H]1C[C@@H]2C[C@H]1CN2c1ncc2ncnc(Nc3ccc(Oc4ccn5ncnc5c4)c(Cl)c3)c2n1` [Example 334] came in with an IC50 of 55.7 nM.

The next assay concerns the target EGFR wild type (EGFR WT) (Homo sapiens (Human), UniProt P00533). Description: Cellular phosphorylation assay, EGF-stimulated EGFR phosphorylation in engineered NIH 3T3 cells, Phospho-EGFR DuoSet IC ELISA, Assay 5. In kind it is cell-based.
Details: not given
A digest of the protocol:
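NIH 3T3 cells expressing EGFR WT (20,000/well, attached overnight) were exposed to serially diluted compound for 1 h at 37 °C, then stimulated with 100 ng/ml rEGF for 10 min. Phospho-EGFR in lysates measured by sandwich ELISA optical density; IC50 from curves.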
On the technique in general: An ELISA detects its analyte on a solid surface through an enzyme-linked reagent.
`Clc1cc(Nc2ncnc3cnc(N4C5CCC4COC5)nc23)ccc1Oc1ccn2ncnc2c1` [Example 322] returned an IC50 of at least 5000 nM.
Regarding `O[C@@H]1CN(c2ncc3ncnc(Nc4ccc(Oc5ccn6ncnc6c5)c(Cl)c4)c3n2)CC1(F)F` [Example 323], the IC50 is at least 5000 nM.
As to `CC1(O)CN(c2ncc3ncnc(Nc4ccc(Oc5ccn6ncnc6c5)c(Cl)c4)c3n2)C1` [Example 324], the IC50 is at least 5000 nM.
`COC[C@H](O)CN(C)c1ncc2ncnc(Nc3ccc(Oc4ccn5ncnc5c4)c(Cl)c3)c2n1` [Example 325] gave a concentration for half-maximal inhibition (IC50) of at least 5000 nM.
Consider `OC1(CNc2ncc3ncnc(Nc4ccc(Oc5ccn6ncnc6c5)c(Cl)c4)c3n2)COC1` [Example 326], for which the IC50 is at least 5000 nM.
Still for that read-out and setting: the value for `C[C@H]1CN(c2ncc3ncnc(Nc4ccc(Oc5ccn6ncnc6c5)c(Cl)c4)c3n2)CCO1` [Example 327] was at least 5000 nM.
For `COC[C@@H]1CCN1c1ncc2ncnc(Nc3ccc(Oc4ccn5ncnc5c4)c(Cl)c3)c2n1` [Example 328], the IC50 is at least 5000 nM.
With `CN(CC1(O)CCC1)c1ncc2ncnc(Nc3ccc(Oc4ccn5ncnc5c4)c(Cl)c3)c2n1` [Example 329], the IC50 was at least 5000 nM.
`CC1(C)CN(c2ncc3ncnc(Nc4ccc(Oc5ccn6ncnc6c5)c(Cl)c4)c3n2)CCO1` [Example 330] had an IC50 of at least 5000 nM.
`O[C@@H]1C[C@H]2C[C@@H]1CN2c1ncc2ncnc(Nc3ccc(Oc4ccn5ncnc5c4)c(Cl)c3)c2n1` [Example 332] registered an IC50 of at least 5000 nM.
The molecule `O[C@@H]1C[C@@H]2C[C@H]1CN2c1ncc2ncnc(Nc3ccc(Oc4ccn5ncnc5c4)c(Cl)c3)c2n1` [Example 333] yielded an IC50 of at least 5000 nM.
The same measure, in the same setting: the value for `O[C@H]1C[C@@H]2C[C@H]1CN2c1ncc2ncnc(Nc3ccc(Oc4ccn5ncnc5c4)c(Cl)c3)c2n1` [Example 334] was at least 5000 nM.

The target in a further assay is ErbB2 insYVMA (HER2-YVMA, SEQ ID NO: 2) (Homo sapiens, UniProt P04626, INS775YVMA/P1170A). Description: biochemical. To be noted: ErbB2 insYVMA enzyme assay; read-out: Assay 1 IC50.
`Clc1cc(Nc2ncnc3cnc(N4C5CCC4COC5)nc23)ccc1Oc1ccn2ncnc2c1` [Example 322]: the IC50 amounted to 21.6 nM.
For the molecule `O[C@@H]1CN(c2ncc3ncnc(Nc4ccc(Oc5ccn6ncnc6c5)c(Cl)c4)c3n2)CC1(F)F` [Example 323], the IC50 was 12.2 nM.
Still for that read-out and setting: the value for `CC1(O)CN(c2ncc3ncnc(Nc4ccc(Oc5ccn6ncnc6c5)c(Cl)c4)c3n2)C1` [Example 324] was 64.4 nM; that for `COC[C@H](O)CN(C)c1ncc2ncnc(Nc3ccc(Oc4ccn5ncnc5c4)c(Cl)c3)c2n1` [Example 325] was 27.5 nM; that for `OC1(CNc2ncc3ncnc(Nc4ccc(Oc5ccn6ncnc6c5)c(Cl)c4)c3n2)COC1` [Example 326] was 14.4 nM.
On to `C[C@H]1CN(c2ncc3ncnc(Nc4ccc(Oc5ccn6ncnc6c5)c(Cl)c4)c3n2)CCO1` [Example 327], for which the IC50 was determined as 20.8 nM.
As to `COC[C@@H]1CCN1c1ncc2ncnc(Nc3ccc(Oc4ccn5ncnc5c4)c(Cl)c3)c2n1` [Example 328], the IC50 was determined as 17.9 nM.
Turning to `CN(CC1(O)CCC1)c1ncc2ncnc(Nc3ccc(Oc4ccn5ncnc5c4)c(Cl)c3)c2n1` [Example 329], the IC50 stood at 19.8 nM.
With `CC1(C)CN(c2ncc3ncnc(Nc4ccc(Oc5ccn6ncnc6c5)c(Cl)c4)c3n2)CCO1` [Example 330], the IC50 was determined as 34.3 nM.
As for `O[C@@H]1C[C@H]2C[C@@H]1CN2c1ncc2ncnc(Nc3ccc(Oc4ccn5ncnc5c4)c(Cl)c3)c2n1` [Example 332], the IC50 was 48.6 nM.
On the same count and under the same terms, to `O[C@@H]1C[C@@H]2C[C@H]1CN2c1ncc2ncnc(Nc3ccc(Oc4ccn5ncnc5c4)c(Cl)c3)c2n1` [Example 333] belongs 11.9 nM; to `O[C@H]1C[C@@H]2C[C@H]1CN2c1ncc2ncnc(Nc3ccc(Oc4ccn5ncnc5c4)c(Cl)c3)c2n1` [Example 334], 20.4 nM.
